Data from patent US10328093B2, “Anthracycline formulations” (CYTRX CORPORATION, priority 2012, dated 2019).
Values joined by “and” are separate entries in the source; they are usually repeats but may differ in a detail not shown here. Equal values may be shown once.

How the values were obtained:
[1] = IV bag solution stability study of DOXO-EMCH API (0.9% NaCl, D5W, LR); assay type: physicochemical; settings: for solubility: ~2 mg/mL
Experimental: (§1) To analyze DOXO-EMCH's behavior in solution, a reversed-phase (RP) HPLC method for quantitation of DOXO-EMCH and various impurities and degradation products was utilized. Samples (1.0 μL injection volume) were assayed on an HPLC system fitted with a Phenomenex Gemini C18 column 100×2.0 mm, 3 μm at a flow rate of 0.3 mL/min. The mobile phase used was an acetate/acetonitrile gradient. The degradation product EMCH could not be detected using the above HPLC method, and was therefore determined using a liquid chromatography-mass spectrometry (LC-MS) method.
To obtain baseline data on the stability of DOXO-EMCH at the point of use, a study was designed to determine degradation of DOXO-EMCH when combined with candidate intravenous (IV) bag solutions. IV bag solutions including Dextrose 5% in Water (D5W), Lactated Ringers (LR), and Sodium Chloride Solution 0.9% (Normal Saline; NS) were used. 100 mg of DOXO-EMCH active pharmaceutical ingredient (API) were dissolved in 50 mL of the IV bag solution for a concentration of ˜2 mg/mL DOXO-EMCH API. The IV bag solutions containing API were then aliquoted in glass vials. The vials were stored at 25° C. in a stability chamber for the length of the experiment. Prior to the beginning of the IV bag stability study, all IV bag solutions were tested for pH and the presence of any peaks interfering with DOXO-EMCH or any degradation peaks of interest. Samples were pulled at 0 hr, 2 hr, 4 hr, and 6 hr time intervals and tested for pH and in duplicate by HPLC.
Tables 8-10 below list the results for the IV bag study using 0.9% NaCl, D5W, and Lactated Ringer's Solution. In summary, the 0.9% NaCl and Lactated Ringer's solutions met the goal of less than 3% doxorubicin over 3-5 hours. […] The sample was opaque and precipitated material visibly settled over a 2-hour period. […] The samples were mixed well before dilution of each sample for HPLC assay, but non-homogeneity of these samples is reflected in the DOXO-EMCH recovery values for those two IV bag solutions. […] The pH for D5W was the lowest of all the IV bag solutions tested.

[2] = Stability of DOXO-EMCH in DI water with manual pH adjustment (RP-HPLC); assay type: physicochemical; settings: for DOXO-EMCH / Doxorubicin: ~2.0 mg/mL in DI Water, manual pH adjustment to pH ~6.1 at 30 minute intervals
Experimental: as §1
An additional study was performed to obtain data on the stability of DOXO-EMCH dissolved in DI water with manual pH adjustment. The initial pH of the DOXO-EMCH solution (˜2.0 mg/mL) dissolved in DI Water was 5.4. At 30 minute intervals, the pH of the DOXO-EMCH solution was checked and adjusted to pH ˜6.1 by the dropwise addition of a 0.1 N NaOH solution.

dogs = settings: acute and repeat-dose; cited from earlier work
[3] = Solubility and stability of lyophilized DOXO-EMCH reconstituted in diluents at 10 mg/mL; assay type: physicochemical; settings: for pH: ambient conditions
Experimental: as §1
Having established preliminary information on DOXO-EMCH's properties when dissolved in NS, LR, and D5W, a follow-up study was designed to evaluate (1) the solubility and stability of DOXO-EMCH in selected diluents upon reconstitution and (2) the subsequent stability of various IV Admixtures. Diluents included Sterile Water for Injection (SWFI), Lactated Ringers Solution (LR), and 50% (v/v) ethanol/SWFI.
The study evaluating solubility and stability of lyophilized DOXO-EMCH reconstituted in SWFI, LR, and 50% (v/v) ethanol/SWFI was conducted using a target DOXO-EMCH concentration of 10 mg/mL. To obtain a 10 mg/mL concentration, 20 mL of diluent was added to a vial containing 200 mg of lyophilized DOXO-EMCH, and the vial was gently swirled to dissolve the contents and obtain a homogeneous mixture. The sample was mixed and visually inspected for complete reconstitution to a clear solution for a) approximately 30 seconds, b) approximately 60 seconds, and c) 120 seconds, then up to a total of 10 minutes. If more than 120 seconds were required for visual clarity, the vial may have been intermittently swirled up to a maximum of 10 minutes. Duplicate vials were prepared for each study. Each vial was assessed 10 minutes and 20 minutes after the addition of reconstitution diluent for visual appearance of the reconstituted solution and sampled at these time points for determination of DOXO-EMCH content, doxorubicin content, and solution pH. If a given diluent was determined to provide acceptable solubilization and stability of the vial contents after 20 minutes at ambient conditions, the diluent proceeded directly to part 2 of the study.
The reconstituted solution was evaluated for color, clarity, and absence of insoluble material in the vial after every 30 seconds of mixing. Following addition of the reconstituted drug product solution to the IV bag, the resulting IV Admixture was evaluated for color, clarity, and absence of any insoluble material immediately after mixing and at each analytical time point. The amount (area %) of the degradation product doxorubicin was determined at each time point.

mice = settings: acute and repeat-dose; cited from earlier work
advanced cancer patients = settings: Phase 1, 41 advanced cancer patients, cited from earlier work
[4] = ~2 mg/mL API in 0.9% NaCl IV solution, 25° C., 0 hr
[5] = ~2 mg/mL API in 0.9% NaCl IV solution, 25° C., 2 hr
[6] = ~2 mg/mL API in 0.9% NaCl IV solution, 25° C., 4 hr
[7] = ~2 mg/mL API in 0.9% NaCl IV solution, 25° C., 6 hr
[8] = ~2 mg/mL API in D5W IV solution, 25° C., 0 hr
[9] = ~2 mg/mL API in D5W IV solution, 25° C., 2 hr
[10] = ~2 mg/mL API in D5W IV solution, 25° C., 4 hr
[11] = ~2 mg/mL API in D5W IV solution, 25° C., 6 hr
[12] = ~2 mg/mL API in LR IV solution, 25° C., 0 hr
[13] = ~2 mg/mL API in LR IV solution, 25° C., 2 hr
[14] = ~2 mg/mL API in LR IV solution, 25° C., 4 hr
[15] = ~2 mg/mL API in LR IV solution, 25° C., 6 hr

In the case of COc1cccc2c1C(=O)c1c(O)c3c(c(O)c1C2=O)C[C@@](O)(/C(CO)=N/NC(=O)CCCCCN1C(=O)C=CC1=O)C[C@@H]3O[C@H]1C[C@H](N)[C@H](O)[C@H](C)O1.Cl [DOXO-EMCH], the “doxorubicin over 3-5 hours (goal)” value ([1]; 0.9% NaCl IV solution, 25° C.) is reported as “less than 3%”, the “degradation over a 6 hour period” value ([1]; D5W solution, 25° C.) is reported as “significant degradation of DOXO-EMCH and formation of doxorubicin” and the “doxorubicin over 3-5 hours (goal)” value ([1]; Lactated Ringer's solution, 25° C.) is reported as “less than 3%”. The solubility ([1]; in 0.9% NaCl) was “not completely soluble”, the solubility ([1]; in D5W) was “completely soluble” and the solubility ([1]; in Lactated Ringer's) was “not completely soluble”. The Doxorubicin [1, 4] was 0.3 wt %, the pH [1, 4] was 6.5 and the Doxorubicin [1, 5] was 0.9 wt %. For the same compound, the pH [1, 5] was 6.0, the Doxorubicin [1, 6] was 2.1 wt % and the pH [1, 6] was 5.6. For the same compound, the Doxorubicin [1, 7] was 2.6 wt %, the pH [1, 7] was 5.7 and the Doxorubicin [1, 8] was 1.6 wt %. The pH [1, 8] was 5.5, the Doxorubicin [1, 9] was 5.8 wt % and the pH [1, 9] was 5.0. For the same compound, the Doxorubicin [1, 10] was 11.2 wt %, the pH [1, 10] was 4.9 and the Doxorubicin [1, 11] was 16.8 wt %. The pH [1, 11] was 4.8, the Doxorubicin [1, 12] was 0.2 wt % and the pH [1, 12] was 6.3. For the same compound, the Doxorubicin [1, 13] was 0.5 wt %, the pH [1, 13] was 6.1 and the Doxorubicin [1, 14] was 0.9 wt %. It also gave a pH [1, 14] of 6.0, a Doxorubicin [1, 15] of 1.6 wt % and a pH [1, 15] of 5.9. For the same compound, the “initial pH of the DOXO-EMCH solution” value ([2]; ~2.0 mg/mL dissolved in DI Water, before adjustment) was 5.4, the DOXO-EMCH ([2]; 0 hr) was 98.8 wt % and the Doxorubicin ([2]; 0 hr) was 0.5 wt %. For the same compound, the DOXO-EMCH ([2]; 2 hr) was 91.8 wt %, the Doxorubicin ([2]; 2 hr) was 2.4 wt % and the DOXO-EMCH ([2]; 4 hr) was 85.6 wt %. For the same compound, the Doxorubicin ([2]; 4 hr) was 3.6 wt %, the DOXO-EMCH ([2]; 6 hr) was 80.6 wt % and the Doxorubicin ([2]; 6 hr) was 4.3 wt %. The “tolerance compared to doxorubicin” value (dogs) was “significantly higher tolerance”, the solubility ([3]; in ethanol:water) was “completely soluble” and the “time to go into solution” value ([3]; in ethanol:water) was “within less than a minute”. For the same compound, the “mixing time until solutions appeared visually clear” value ([3]; reconstituted in 50:50 ethanol:water at 10 mg/mL) was 120 s, the pH ([3]; reconstituted in 50:50 ethanol:water at 10 mg/mL, 10 minutes) was 5.9 and the pH ([3]; reconstituted in 50:50 ethanol:water at 10 mg/mL, 20 minutes) was 5.7 and 5.8. The “mixing time until solutions appeared visually clear” value ([3]; reconstituted in LR at 10 mg/mL) was 120 s, the pH ([3]; reconstituted in LR at 10 mg/mL, 10 minutes) was 6.0 and 5.9 and the pH ([3]; reconstituted in LR at 10 mg/mL, 20 minutes) was 5.9 and 5.8. For the same compound, the pH ([3]; reconstituted in SWFI at 10 mg/mL, 10 minutes) was 5.4 and 5.3, the pH ([3]; reconstituted in SWFI at 10 mg/mL, 20 minutes) was 5.1 and 5.5 and the “mixing time until solutions appeared visually clear” value ([3]; reconstituted in SWFI at 10 mg/mL, a few undissolved particles remained) was 90 to 120 s. For the same compound, the “tolerance compared to doxorubicin” value (mice) was “significantly higher tolerance”, the tumor response (advanced cancer patients; in some cases) was “induced tumor regression” and the clinical safety (advanced cancer patients) was “safe for clinical use”.
